Experiments:
[1] = Sensory analysis: odour threshold
Excerpt: (§1) Purpose: to carry out a sensory analysis of (−)-Ambrox and the compounds (II), (III) and (IV) formed in the crude material and in the crystallised material.

[2] = Sensory analysis: GC-detection threshold and odour description; details: for GC-detection threshold / odour description: sensory analysis; for odour description: in words
Excerpt: as §1

CC1(C)CCC[C@]2(C)[C@H]3CCO[C@]3(C)CC[C@@H]12 [(−)-Ambrox]
Odour Threshold ([1]; sensory analysis): 0.2 ng/L

C/C1=C/CCO[C@@]2(C)CCCC(C)(C)[C@@H]2CC1 [Compound (II)]
detection threshold ([1]; as stated in the description): > 500 ng/L
GC-detection threshold [2]: > 500 ng
odour description [2]: “odorless”
odour description ([2]; listed as II): weaker odour
odour description ([2]; listed as compound of formula (II)): practically odourless

CC1(C)CCC[C@@]2(C)[C@H]1CC[C@@]1(C)OCC[C@@H]21 [Compound (III)]
odor weaker than (−)-Ambrox ([2]; compared with (−)-Ambrox): about 10 fold
GC-detection threshold [2]: circa 2 ng
odour description ([2]; listed as Compound III): essentially odorless
odour description ([2]; listed as III): weaker odour
GC-threshold relative to (−)-Ambrox ([2]; times higher than (−)-Ambrox): about 10 ×

CC1(C)CCC[C@@]2(C)[C@H]1CC[C@]1(C)OCC[C@@H]21 [Compound (IV)]
GC-detection threshold [2]: 5 to 10 ng
odour description [2]: weak, IsoE, woody
odour description ([2]; listed as IV): weaker odour
